Results from US7026270B2, “Biocidal compounds and their preparation” (Syngenta Crop Protection, Inc., priority 2002, dated 2006).

Experiments:
Format in all cases: in vivo
[1] = tested on: Stagonospora Nodorum (LEPTNO); assay: Foliar fungicidal test on wheat, 1 day protectant, Stagonospora Nodorum; settings: 100 ppm foliar spray on wheat; inoculated one day after chemical application; banded assessment
Protocol: (§1) This Example illustrates the fungicidal properties of the compounds of formula (I). The compounds were tested against a variety of foliar fungal diseases of plants. The technique employed was as follows. Plants were grown on an artificial, cellulose based growing medium. The test compounds were individually diluted in reverse osmosis water to a final concentration of 100 ppm in water (that is, 1 mg of compound in a final volume of 10 ml) immediately before use. TWEEN 20 (at a final concentration of 0.05% by volume) was added with the water to improve retention of the spray deposit. TWEEN is a registered trade mark. The compounds were applied to the foliage of the test plants by spraying the plant to maximum droplet retention. […] After chemical application and inoculation, the plants were incubated under high humidity conditions (except those inoculated with Blumeria graminis f.sp. tritici) and then put into an appropriate environment to allow infection to proceed until the disease was ready for assessment. […] However, each individual disease was assessed after the same time period for all compounds. […] The disease level present (the percentage leaf area covered by actively sporulating disease) was assessed visually. For each treatment, the assessed values for all its replicates were meaned to provide mean disease values. Untreated control plants were assessed in the same manner. […]

[2] = tested on: Puccinia triticina (PUCCRT); assay: Foliar fungicidal test on wheat, 1 day protectant, Puccinia triticina; settings: 100 ppm foliar spray on wheat; inoculated one day after chemical application; banded assessment
Protocol: as §1

[3] = tested on: Blumeria graminis f.sp. tritici (ERYSGT); assay: Foliar fungicidal test on wheat, 6 hour protectant, Blumeria graminis f.sp. tritici; settings: 100 ppm foliar spray on wheat; inoculated 6 hours after chemical application; banded assessment
Protocol: as §1

| Structure (SMILES) | PRCO (Percentage Disease Reduction from Control) LEPTNO 1 day Protectant [1] | PRCO (Percentage Disease Reduction from Control) PUCCRT 1 day Protectant [2] | PRCO (Percentage Disease Reduction from Control) ERYSGT 6 hour Protectant [3] |
| --- | --- | --- | --- |
| CO[C@@H]1CO[C@H]2[C@@H](O)[C@H](c3c[nH]c(=O)[nH]c3=O)O[C@@H]2[C@@H]1NC(N)=O (stereo in doubt) [(II), Malayamycin A] | 100 | 100 | 100 |
| NC(=O)N[C@H]1[C@H]2O[C@@H](c3c[nH]c(=O)[nH]c3=O)[C@H](O)[C@@H]2OC[C@H]1O (stereo in doubt) [(III), Desmethylmalayamycin A] | 99 | 100 | 0 |
